{
  "source": "patent US11497761B2",
  "about": "“Compositions for the treatment of metastatic cancer” (priority 2019, dated 2022)",
  "key": {"[1]": {"test_system": "Ehrlich ascites tumor cells", "conditions": "in vitro, Kato et al. 1971; cited from earlier work"}, "[2]": {"test_system": "iCTCs from pancreatic cancer patients", "test": "iCTC drug response (CDR) testing ex vivo, Project 1 Study-Pancreatic Cancer", "format": "cell-based, human", "conditions": "for number of live iCTCs remaining after treatment: 72 hours", "description": "Materials for Project 1 Study-Pancreatic Cancer • Blood collection tubes: BD Vacutainer® 10 mL sodium heparin tube (BD catalog #367874)). • Vita-Assay™ AN6W plate. • Blood: pancreatic cancer, up to 40-mL blood collected from patients and provided by Conversant Bio. • Stock solution and dilutions • Monolaurin 4.78 mM with 0.75% PS-80 (Stock Solution C), 13.1 mg monolaurin in 0.25 mL PS-80 and 0.75 mL water and 0.1 mL of this solution was diluted with 0.9 mL of RPMI. Stocks are stable for 2 weeks at 4 degrees C. Monolaurin used is an equal mixture of 1-, 2-, and 3-isomers of monolaurin. • Monolaurin dilution: add 209.2 uL, 627.6 uL, and 1.2552 mL of monolaurin in 0.75% PS-80 (Stock solution C), and dilute to 10 mL of media to achieve final concentrations of 100 uM, 200 uM, 300 uM as indicated.\nWith respect to FIG. 1, a depiction of a generalized experimental scheme for testing efficacy of a composition in accordance with an exemplary embodiment of the present invention against iCTC from the blood of pancreatic cancer patients is shown. Invasive circulating tumor cells (iCTCs) were obtained from venous blood of the individual with advanced pancreatic cancer, cultured and exposed to a specific drug or battery of drugs at 1×, 2×, and 3× concentrations in vitro for 3 days. Drug responsiveness was measured by automatic flow cytometry using the reduction of live iCTCs in the treated samples from the number of live iCTCs in the untreated controls. The greater the reduction of iCTCs of a given drug at a given dose indicates greater responsiveness to that dose of the drug. Four AN6W plates were used for each sample. Control and drug at each dose in triplicate were incubated for 72 hours. The iCTCs were measured by flow cytometry and viewed by microscopy as described. The complete culture medium contains 10% fetal bovine serum.\nThe complete experimental procedure for Project 1 Study-Pancreatic Cancer, with reference to FIG. 1, is as follows:\n1. Blood collection: up to 40-mL of blood was collected in several sodium heparin tubes from each patient.\n2. Plasma collection: The patient sample tubes were pooled into a clean 50-mL conical tube and spun at 1,500 rpm for 8 mins at room temperature to separate plasma from blood cells. 3-4 mL of plasma were then collected into a clean 4.5-mL cell-frozen vial (up to 4 vials per patient), a labeled attached and the plasma stored at −80° C. freezer for use. 3. Calculated 50-mL tubes required for lysis of red blood cells: original blood volume. i.e., 36-mL,/2-mL=18. 4. Aliquotted 1/18 the remaining cell fraction into 18 new 50-mL tubes. 5. Red cell lysis: Added 48-mL of 1× red cell lysis buffer into each 50-mL tube to lyse red cells. Tubes placed on a roller mixer at 20-25° C. for 5 min. Cells spun down using low speed centrifugation (1,000 rpm). 6. iCTCs were captured using AN6W plate with or without drug treatment. 7. Drug treatment: Add 1-mL of CTC Capture Medium (standard culture medium containing 10% serum) with or without drugs (3× strength) to each 2-mL of the cell suspension in one well of the AN6W plate. 8. Cell culture: Culture cells in a 5% CO2 incubator at 37° C. for overnight, 72 hours, and 7 days. 9. CAM-enzyme elution of CAM-captured cells: Wells will be washed twice using 2-mL of 1×PBS. Add 0.8-mL of the activated CAM enzyme working solution into the well, and place at 37° C. for 15 min. Transfer cell suspension into a 15-mL conical centrifuge tube. Wash well by pipetting 2-mL of 1×PBS into the well and collect/transfer wash solution into the pool cell suspension. CAM-captured tumor cells will be collected using low speed centrifugation (1,000 rpm) of the conical tube. 10. Preparation of the cells for flow cytometry: Fix the cells by using 1×BD cell fixing buffer and keep at room temperature for 5 min. Add 3-mL of 1×PBS (containing 0.2% BSA buffer), spin down cells and remove the supernatant. 11. […]"}},
  "data": [
    {"compound": "CCCCCCCCCCCC(=O)OCC(O)CO", "note": "(centres unmarked) [Monolaurin, glycerol monolaurate]", "values": [
      {"measurement": "anticancer activity", "setting": "[1]", "value": "only weak activity"},
      {"measurement": "kill rates of iCTCs (summary)", "setting": "[2]; iCTCs from pancreatic cancer patients", "value": "high kill rates"},
      {"measurement": "number of live iCTCs remaining after treatment", "setting": "[2]; patient RP01 (Folfirinox), iCTC control 550, 100 uM monolaurin", "value": 50},
      {"measurement": "number of live iCTCs remaining after treatment", "setting": "[2]; patient RP01 (Folfirinox), iCTC control 550, 200 uM monolaurin", "value": 0},
      {"measurement": "number of live iCTCs remaining after treatment", "setting": "[2]; patient RP01 (Folfirinox), iCTC control 550, 300 uM monolaurin", "value": 0},
      {"measurement": "number of live iCTCs remaining after treatment", "setting": "[2]; patient RP03 (Folfirinox), iCTC control 23, 100 uM monolaurin", "value": 10},
      {"measurement": "number of live iCTCs remaining after treatment", "setting": "[2]; patient RP03 (Folfirinox), iCTC control 23, 200 uM monolaurin", "value": 0},
      {"measurement": "number of live iCTCs remaining after treatment", "setting": "[2]; patient RP03 (Folfirinox), iCTC control 23, 300 uM monolaurin", "value": 0},
      {"measurement": "number of live iCTCs remaining after treatment", "setting": "[2]; patient RP04 (Folfirinox), iCTC control 30, 100 uM monolaurin", "value": 0},
      {"measurement": "number of live iCTCs remaining after treatment", "setting": "[2]; patient RP04 (Folfirinox), iCTC control 30, 200 uM monolaurin", "value": 0},
      {"measurement": "number of live iCTCs remaining after treatment", "setting": "[2]; patient RP04 (Folfirinox), iCTC control 30, 300 uM monolaurin", "value": 0},
      {"measurement": "number of live iCTCs remaining after treatment", "setting": "[2]; patient RP10 (Folfirinox), iCTC control 100, 100 uM monolaurin", "value": 10},
      {"measurement": "number of live iCTCs remaining after treatment", "setting": "[2]; patient RP10 (Folfirinox), iCTC control 100, 200 uM monolaurin", "value": 0},
      {"measurement": "number of live iCTCs remaining after treatment", "setting": "[2]; patient RP10 (Folfirinox), iCTC control 100, 300 uM monolaurin", "value": 0},
      {"measurement": "number of live iCTCs remaining after treatment", "setting": "[2]; patient RP11 (Folfirinox), iCTC control 40, 100 uM monolaurin", "value": 10},
      {"measurement": "number of live iCTCs remaining after treatment", "setting": "[2]; patient RP11 (Folfirinox), iCTC control 40, 200 uM monolaurin", "value": 10},
      {"measurement": "number of live iCTCs remaining after treatment", "setting": "[2]; patient RP11 (Folfirinox), iCTC control 40, 300 uM monolaurin", "value": 10},
      {"measurement": "number of live iCTCs remaining after treatment", "setting": "[2]; patient RP12 (Folfirinox), iCTC control 30, 100 uM monolaurin", "value": 20},
      {"measurement": "number of live iCTCs remaining after treatment", "setting": "[2]; patient RP12 (Folfirinox), iCTC control 30, 200 uM monolaurin", "value": 0},
      {"measurement": "number of live iCTCs remaining after treatment", "setting": "[2]; patient RP12 (Folfirinox), iCTC control 30, 300 uM monolaurin", "value": 0},
      {"measurement": "number of live iCTCs remaining after treatment", "setting": "[2]; patient RP16 (Folfirinox), iCTC control 30, 100 uM monolaurin", "value": 0},
      {"measurement": "number of live iCTCs remaining after treatment", "setting": "[2]; patient RP16 (Folfirinox), iCTC control 30, 200 uM monolaurin", "value": 0},
      {"measurement": "number of live iCTCs remaining after treatment", "setting": "[2]; patient RP16 (Folfirinox), iCTC control 30, 300 uM monolaurin", "value": 0},
      {"measurement": "number of live iCTCs remaining after treatment", "setting": "[2]; patient RP17 (Gemzar), iCTC control 50, 100 uM monolaurin", "value": 0},
      {"measurement": "number of live iCTCs remaining after treatment", "setting": "[2]; patient RP17 (Gemzar), iCTC control 50, 200 uM monolaurin", "value": 0},
      {"measurement": "number of live iCTCs remaining after treatment", "setting": "[2]; patient RP17 (Gemzar), iCTC control 50, 300 uM monolaurin", "value": 0},
      {"measurement": "number of live iCTCs remaining after treatment", "setting": "[2]; patient RP18 (Gemzar/Abraxane), iCTC control 175, 100 uM monolaurin", "value": 0},
      {"measurement": "number of live iCTCs remaining after treatment", "setting": "[2]; patient RP18 (Gemzar/Abraxane), iCTC control 175, 200 uM monolaurin", "value": 0},
      {"measurement": "number of live iCTCs remaining after treatment", "setting": "[2]; patient RP18 (Gemzar/Abraxane), iCTC control 175, 300 uM monolaurin", "value": 0},
      {"measurement": "number of live iCTCs remaining after treatment", "setting": "[2]; patient RP22 (Keytruda), iCTC control 45, 100 uM monolaurin", "value": 0},
      {"measurement": "number of live iCTCs remaining after treatment", "setting": "[2]; patient RP22 (Keytruda), iCTC control 45, 200 uM monolaurin", "value": 0},
      {"measurement": "number of live iCTCs remaining after treatment", "setting": "[2]; patient RP22 (Keytruda), iCTC control 45, 300 uM monolaurin", "value": 0},
      {"measurement": "number of live iCTCs remaining after treatment", "setting": "[2]; patient RP′14 (Folfirinox), iCTC control 40, 100 uM monolaurin", "value": 20},
      {"measurement": "number of live iCTCs remaining after treatment", "setting": "[2]; patient RP′14 (Folfirinox), iCTC control 40, 200 uM monolaurin", "value": 15},
      {"measurement": "number of live iCTCs remaining after treatment", "setting": "[2]; patient RP′14 (Folfirinox), iCTC control 40, 300 uM monolaurin", "value": 10}
    ]}
  ]
}
